Assay [1] concerns the target T1, PeaTAR1B (PeaTAR1B-HA) (Periplaneta americana, UniProt A0A239QQ38).
T1 construct: stably expressed in HEK 293 flpTM cells
T1 sequence (A0A239QQ38 1-481): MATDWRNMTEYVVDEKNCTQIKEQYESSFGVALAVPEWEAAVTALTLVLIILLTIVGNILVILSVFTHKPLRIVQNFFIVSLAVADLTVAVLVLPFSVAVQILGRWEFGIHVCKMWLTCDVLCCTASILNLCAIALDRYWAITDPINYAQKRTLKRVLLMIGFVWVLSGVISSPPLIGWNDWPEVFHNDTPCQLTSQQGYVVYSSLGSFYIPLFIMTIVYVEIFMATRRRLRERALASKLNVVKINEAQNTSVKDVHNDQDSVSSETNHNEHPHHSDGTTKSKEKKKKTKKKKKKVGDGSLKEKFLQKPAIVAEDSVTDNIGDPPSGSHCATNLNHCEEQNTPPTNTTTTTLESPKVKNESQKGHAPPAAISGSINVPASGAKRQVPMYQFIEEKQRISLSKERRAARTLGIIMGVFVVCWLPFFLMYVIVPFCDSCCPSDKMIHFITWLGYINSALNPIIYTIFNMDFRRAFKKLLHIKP
The experiment in a line: attenuation of NKH 477-stimulated cAMP, CNG channel / Fluo-4 Ca2+ fluorescence in HEK […] flpTM cells. It counts as cell-based.

In assay [2] the target is T1, PeaTAR1B (PeaTAR1B-HA). The experiment in a line: block of tyramine-induced attenuation of NKH 477-stimulated cAMP, CNG channel / Fluo-4 fluorescence in HEK […] flpTM cells. It counts as cell-based.

The structures appear in SMILES notation.

Data on two molecules can be found in publication PMC5713249, “PeaTAR1B: Characterization of a Second Type 1 Tyramine Receptor of the American Cockroach, Periplaneta americana” (International Journal of Molecular Sciences, 2017).

One may read the EC50 as the concentration needed to bring the measured effect to its halfway point. The low end stands for greater potency, the high end for weaker potency. The molecule `NCCc1ccc(O)cc1` [tyramine] registered an EC50 on PeaTAR1B (PeaTAR1B-HA) [1] of about 6.3 nM. A word on the IC50: it is the concentration at which inhibition is half-maximal. Read a high IC50 as weaker potency in that assay. In turn, `COC(=O)[C@@H]1[C@H]2C[C@H]3c4[nH]c5ccccc5c4CCN3C[C@@H]2CC[C@@H]1O` [yohimbine] showed an IC50 against PeaTAR1B (PeaTAR1B-HA) [2] of 740 nM.
